Consider nine compounds from patent US6897212B2, “Treatment of oppositional defiant disorder and conduct disorder with 5-aminoalkyl-4,5,6,7-tetrahydro-4-oxyindolones” (Afecta Pharmaceuticals, priority 2002, dated 2005).

For one data set, the target named is 5-HT2A (Homo sapiens, UniProt P28223). Briefly: in vitro activity (pA2) on cells expressing serotonine receptors.
For the next data set, the target named is Dopamine 2 receptor (Homo sapiens, UniProt P14416). Briefly: binding affinity to Dopamine 2 receptor in cell membrane homogenates.
Dopamine 2 receptor, sequence (P14416 whole entry): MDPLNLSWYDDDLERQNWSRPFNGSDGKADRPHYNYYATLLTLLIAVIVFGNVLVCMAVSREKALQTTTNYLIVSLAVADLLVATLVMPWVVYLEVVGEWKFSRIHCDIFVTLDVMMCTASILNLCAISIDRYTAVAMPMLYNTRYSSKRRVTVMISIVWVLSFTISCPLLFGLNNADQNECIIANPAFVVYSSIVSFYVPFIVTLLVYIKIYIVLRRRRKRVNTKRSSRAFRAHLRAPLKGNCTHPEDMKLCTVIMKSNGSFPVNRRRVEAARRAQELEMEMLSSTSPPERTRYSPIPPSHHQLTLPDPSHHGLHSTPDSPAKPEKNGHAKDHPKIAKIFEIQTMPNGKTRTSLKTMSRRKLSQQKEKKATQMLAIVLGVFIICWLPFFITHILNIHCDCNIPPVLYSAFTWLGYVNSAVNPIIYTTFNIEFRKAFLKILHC
A further data set concerns the target T1, Serotonin 2A receptor (Homo sapiens, UniProt P28223).
T1 construct: membrane homogenates
The data set can be described thus: binding affinity to Serotonin 2A receptor in cell membrane homogenates. The settings on record: for Ki: cell membrane homogenates, read-out: pKi 5-HT2A (converted); for pKi ratio 5-HT2A/D2: ratio of Serotonin 2A binding to Dopamine 2 binding. The text has this: The formulae of the compounds are [drawing 6]
Here, the pKi value is a measure for the binding affinity of the test compounds to the receptors present in cell membrane homogenates. D1 refers to the Dopamine 1 receptor, D2 refers to the Dopamine 2 receptor, and 5-HT2A refers to the Serotonin 2A receptor, while the pKi ratio presents the ratio of Serotonin 2A binding to Dopamine 2 binding.

The target of another data set is Dopamine 1 receptor (Homo sapiens, UniProt P21728). The data set can be described thus: binding affinity to Dopamine 1 receptor in cell membrane homogenates.
Dopamine 1 receptor, sequence (P21728 whole entry): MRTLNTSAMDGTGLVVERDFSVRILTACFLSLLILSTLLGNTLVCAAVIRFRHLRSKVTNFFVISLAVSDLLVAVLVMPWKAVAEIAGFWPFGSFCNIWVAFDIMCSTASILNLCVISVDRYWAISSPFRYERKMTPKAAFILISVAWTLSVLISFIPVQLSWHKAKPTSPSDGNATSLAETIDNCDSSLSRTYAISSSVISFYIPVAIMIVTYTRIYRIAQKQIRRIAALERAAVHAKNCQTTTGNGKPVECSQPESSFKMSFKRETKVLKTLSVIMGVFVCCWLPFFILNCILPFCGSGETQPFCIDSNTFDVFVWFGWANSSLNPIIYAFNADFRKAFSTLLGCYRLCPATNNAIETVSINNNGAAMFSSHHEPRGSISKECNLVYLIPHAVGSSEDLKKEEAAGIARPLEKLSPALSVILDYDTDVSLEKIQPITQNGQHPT
In data set [1] the test system is children with undersocialized conduct disorder, aggressive type. The following applies: cited from earlier work; for behavior ratings: double-blind study, 31 children, ages 6-11 years (Greenhill et al., 1985).
Data set [2] is described as follows: weight gain in treated patients.
The conditions of data set [3]: cited from earlier work.
The subject of data set [4] is patients with refractory depression. The settings on record: 19 patients with refractory depression; molindone 10-30 mg/day; cited from earlier work.
The conditions of data set [5]: human, in vivo.
A further data set relates to monoamine oxidase. The settings on record: in vitro and in vivo; cited from earlier work.
The next data set concerns patients with ODD. The data set can be described thus: treatment of patients with oppositional defiant disorder and conduct disorder. The data set is classed as in vivo, human. An excerpt: The side effect is totally unacceptable to teenagers.
Case histories are set out in the following examples, which are offered by way of illustration and are not intended to limit the invention in any manner.

The conditions of data set [6]: cited from earlier work. This is another data set of the same source.

Where two headings read alike, the source gives them in different places.

T1 sequence (P28223 whole entry): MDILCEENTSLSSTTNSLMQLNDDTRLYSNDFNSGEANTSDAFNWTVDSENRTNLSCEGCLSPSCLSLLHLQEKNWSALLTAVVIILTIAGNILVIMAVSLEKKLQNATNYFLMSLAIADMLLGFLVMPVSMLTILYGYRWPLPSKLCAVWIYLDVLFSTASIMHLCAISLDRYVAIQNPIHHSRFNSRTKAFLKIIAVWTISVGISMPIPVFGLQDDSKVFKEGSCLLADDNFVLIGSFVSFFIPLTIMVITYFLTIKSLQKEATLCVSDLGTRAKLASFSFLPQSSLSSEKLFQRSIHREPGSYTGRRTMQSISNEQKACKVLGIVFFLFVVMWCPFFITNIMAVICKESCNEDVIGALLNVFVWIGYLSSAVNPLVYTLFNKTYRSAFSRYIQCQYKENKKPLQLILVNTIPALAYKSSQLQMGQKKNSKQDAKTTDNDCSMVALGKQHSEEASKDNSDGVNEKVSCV
5-HT2A, sequence (P28223 whole entry, species assumed): as the sequence (P28223 whole entry) above

With `CCc1c(C)[nH]c2c1C(=O)C(CCN1CCOCC1)CC2` (stereo not drawn) [Compound 1], the Kb on 5-HT2A was 0.105 µM. The Ki was 0.589 µM on Dopamine 2 receptor, 0.912 µM at Serotonin 2A receptor and 2.14 µM on Dopamine 1 receptor. Besides, the “pKi ratio 5-HT2A/D2” value on Serotonin 2A receptor is listed as 0.97.

For the compound `CSc1ccc2c(c1)N(CCC1CCCCN1C)c1ccccc1S2` (stereo not drawn) [thioridazine], the behavior ratings entry in data set [1] was “improvement in behavior ratings”.

As for `Cc1cc2c(s1)Nc1ccccc1N=C2N1CCN(C)CC1` [olanzapine], the weight gain entry is recorded as “significant weight gain” in data set [2] (Example 3, patient one) and “unacceptable level of weight gain, sometimes approaching a pound a day” in data set [2] (patients, especially children).

For the compound `O=C(CCCN1CCC(O)(c2ccc(Cl)cc2)CC1)c1ccc(F)cc1` [haloperidol], in [3], the “fraction in plasma not bound to protein” value was 9%.

In the case of `N[C@@H]1C[C@H]1c1ccccc1` (racemic) [tranylcypromine], the “patients showing definite improvement” value in [4] is recorded as “two”.

`CCc1c(C)[nH]c2c1C(=O)C(CCN1CCN(c3ccccc3OC)CC1)CC2` (stereo not drawn) [Compound 2] gave a Kb at 5-HT2A of 0.0316 µM. This compound showed a Ki on Dopamine 2 receptor of 0.0282 µM. Further, on Serotonin 2A receptor, the Ki is 0.0912 µM and the “pKi ratio 5-HT2A/D2” value was determined as 0.97.

In the case of `CCc1c(C)[nH]c2c1C(=O)C(CN1CCOCC1)CC2` (stereo not drawn) [Molindone, 3-ethyl-6,7-dihydro-2-methyl-5-(morpholinomethyl)indol-4-(5H)-one], the weight gain result in data set [5] was “rarely, if ever, causes weight gain”. Further, in data set [1], the behavior ratings result is listed as “improvement in behavior ratings”. Further, in data set [1] (open trial, six patients, ages 6-11 years (Greenhill et al., 1981)), the “aggressive behavior and Nurses' Global Assessment Scale” value is “some improvement”. Also, the “inhibition of monoamine oxidase” value in the data set on monoamine oxidase was “inhibits the enzyme monoamine oxidase in vitro and in vivo”. The “effect on tantrums, hitting, rages and swearing” value in the data set on patients with ODD (Example 1, patient three, ¼ of a 5 mg tablet every 4 hours) was “immediate cessation of the tantrums, hitting and rages and less swearing”. For the same compound, the “effect of raised dose” value with patients with ODD (Example 1, patient three, ½ of a 5 mg tablet every 4 hours after three months) is reported as “more effective”. In addition, in the data set with patients with ODD (Example 2, patient two, 2.5 mg every 4 hours), the “effect on tantrums and aggressive behaviors” value was “the tantrums and aggressive behaviors disappeared”. The persistence of effect entry in the data set on patients with ODD (Example 2, patient two, after 6 months of use) is listed as “still effective”. Moreover, in the data set on patients with ODD (Example 3, patient one), the “effect on behavior after molindone was again initiated” value was “immediate and dramatic improvement in the behavior”. The “effect on oppositional behavior” value with patients with ODD (Example 3, patient one, molindone 10 mg bid) is recorded as “dramatic decrease in oppositional behavior”. The “treatment of ODD” value with patients with ODD (more than 50 patients with ODD, usual dose 1.25 to 10 mg every 4 hours) was “successfully treated”. In data set [6] (concomitant lithium therapy), the prolongation of half-life result is “at least fourfold”. The elimination half-life entry in data set [6] (humans) is recorded as “approximately 2 hours”. The “patients showing definite improvement” value in [4] is “Five of the 10 patients”.

For `Cc1nc2n(c(=O)c1CCN1CCC(c3noc4cc(F)ccc34)CC1)CCCC2` [risperidone], the weight gain entry was “significant weight gain” in [2] (Example 3, patient one) and “unacceptable level of weight gain, sometimes approaching a pound a day” in data set [2] (patients, especially children). For the same compound, the “effect on oppositional behavior” value with patients with ODD (Example 3, patient one, used instead of molindone) was “significant improvement in the oppositional behavior”. For the same compound, the “treatment of ODD” value with patients with ODD (unpublished observations) is listed as “capable of effectively treating ODD”.

As for `CN(C)CCCN1c2ccccc2Sc2ccc(Cl)cc21` [chlorpromazine], the “fraction in plasma not bound to protein” value in [3] was 0.13%.
